Patent US10968172B2, “USP30 inhibitors” (Mitobridge, Inc., priority 2017, dated 2021)

Target: USP30 (Homo sapiens (Human), UniProt Q70CQ3)
Assay: In vitro biochemical assay for USP30 enzyme (Ubiquitin-Rhodamine110 cleavage, fluorescence)
Conditions: 20 nM USP30, 15 min pre-incubation, 100 nM Ub rhodamine substrate, 2 hrs at room temperature
Description: In vitro biochemical assay for USP30 enzyme
The in vitro assay for USP30 evaluates the ability of a test compound to inhibit the activity of the enzyme to cleave ubiquitin from a substrate. Ubiquitin-rhodamine 110 is a quenched, fluorescent substrate for USP30. Cleavage of the amide bond between the C-terminal glycine of ubiquitin and rhodamine results in an increase in rhodamine fluorescence at 535 nm (Exc. 485 nm).
Incubation of the substrate in the presence or absence of USP30 was compared to confirm the deubiquitylating activity of USP30. The USP30 enzyme assay was performed by pre-incubating 20 nM of USP30 with varying concentration of a test compound in the assay buffer [PBS (pH 7.4), 1 mM DTT, 0.01% Tween 20, 0.01% BSA, DMSO final concentration is 1%] for 15 mins at room temperature, following which 100 nM of substrate Ub rhodamine was added and incubated at room temperature for 2 hrs and the plate was read for fluorescence intensity at Ex. 485 nm/535 nm in VICTOR X5 plate reader. The percent inhibition of activity of the enzyme is calculated by comparing counts in the presence and absence of compounds.
Test compounds were screened at various concentrations (10-12 tested concentrations) and dose response curves were generated was generated using GraphPad Prism software Version 7 (San Diego, Calif., USA) with non-linear regression curve fit for sigmoidal dose response (variable slope).

Sequence of USP30 (Q70CQ3 whole entry): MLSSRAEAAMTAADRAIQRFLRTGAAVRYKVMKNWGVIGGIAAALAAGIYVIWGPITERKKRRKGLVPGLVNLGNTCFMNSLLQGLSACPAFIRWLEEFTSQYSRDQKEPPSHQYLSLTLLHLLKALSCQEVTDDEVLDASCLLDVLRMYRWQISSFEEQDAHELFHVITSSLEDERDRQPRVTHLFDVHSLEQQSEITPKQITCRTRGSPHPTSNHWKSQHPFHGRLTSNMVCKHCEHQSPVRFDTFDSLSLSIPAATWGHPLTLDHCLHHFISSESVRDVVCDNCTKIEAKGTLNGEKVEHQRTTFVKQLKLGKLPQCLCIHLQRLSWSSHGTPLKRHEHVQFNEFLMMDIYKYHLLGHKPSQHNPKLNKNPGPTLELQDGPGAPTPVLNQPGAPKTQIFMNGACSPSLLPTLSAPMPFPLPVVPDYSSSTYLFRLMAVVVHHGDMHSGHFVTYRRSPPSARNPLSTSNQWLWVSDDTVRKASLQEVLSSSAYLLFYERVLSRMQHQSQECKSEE

Structure (SMILES)	IC50 [µM]
CC(C)(C)NS(=O)(=O)c1ccc(NC(=O)[C@H](CC2CCCCC2)NC(=O)c2cccc(F)c2)cc1 [Compound 14g, (S)-N-(1-((4-(N-(tert-butyl)sulfamoyl)phenyl)amino)-3-cyclohexyl-1-oxopropan-2-yl)-3-fluorobenzamide]	0.057
CC(C)(C)NS(=O)(=O)c1ccc(NC(=O)[C@H](Cc2cccc(Cl)c2)NC(=O)C2CCCCC2)cc1 [Compound 19e, (S)-N-(1-((4-(N-(tert-butyl)sulfamoyl)phenyl)amino)-3-(3-chlorophenyl)-1-oxopropan-2-yl)cyclohexanecarboxamide]	> 10
CC(C)(C)NS(=O)(=O)c1ccc(NC(=O)[C@H](Cc2ccccc2)NC(=O)c2cccnn2)cc1 [Compound 10j, (S)-N-(1-((4-(N-(tert-butyl)sulfamoyl)phenyl)amino)-1-oxo-3-phenylpropan-2-yl)pyridazine-3-carboxamide]	0.148
COc1ccc(C[C@H](NC(=O)c2ccncc2)C(=O)Nc2ccc(S(=O)(=O)NC(C)(C)C)cc2)cc1 [Compound 19ab, (S)-N-(1-((4-(N-(tert-butyl)sulfamoyl)phenyl)amino)-3-(4-methoxyphenyl)-1-oxopropan-2-yl)isonicotinamide]	2.4
CC(C)(C)NS(=O)(=O)c1ccc(NC(=O)[C@H](Cc2ccccc2)NC(=O)C2CCCCC2)cc1 [Compound 10b, (S)—N-(1-((4-(N-(tert-butyl)sulfamoyl)phenyl)amino)-1-oxo-3-phenylpropan-2-yl)cyclohexanecarboxamide]	0.059
COC(=O)c1ccc(C(=O)N[C@@H](Cc2ccccc2)C(=O)Nc2ccc(S(=O)(=O)NC(C)(C)C)cc2)cc1 [Compound 10g, methyl (S)-4-((1-((4-(N-(tert-butyl)sulfamoyl)phenyl)amino)-1-oxo-3-phenylpropan-2-yl)carbamoyl)benzoate]	> 10
CC(C)(C)NS(=O)(=O)c1cccc2c(NC(=O)[C@H](Cc3ccc(O)cc3)NC(=O)c3ccccc3)cccc12 [Compound 7b, (S)-N-(1-((5-(N-(tert-butyl)sulfamoyl)naphthalen-1-yl)amino)-3-(4-hydroxyphenyl)-1-oxopropan-2-yl)benzamide]	0.52
CC(C)(C)NS(=O)(=O)c1ccc(NC(=O)[C@H](Cc2ccc(F)cc2)NC(=O)c2ccccc2)cc1 [Compound 19b, (S)-N-(1-((4-(N-(tert-butyl)sulfamoyl)phenyl)amino)-3-(4-fluorophenyl)-1-oxopropan-2-yl)benzamide]	0.133
CC(C)NS(=O)(=O)c1ccc(NC(=O)[C@H](Cc2ccccc2)NC(=O)C2CCCCC2)cc1 [Compound 19h, (S)-N-(1-((4-(N-isopropylsulfamoyl)phenyl)amino)-1-oxo-3-phenylpropan-2-yl)cyclohexanecarboxamide]	0.179
CC(C)(C)NS(=O)(=O)c1ccc(NC(=O)[C@H](CC2CCOCC2)NC(=O)C2CCCCC2)cc1 [Compound 19ac, (S)-N-(1-((4-(N-(tert-butyl)sulfamoyl)phenyl)amino)-1-oxo-3-(tetrahydro-2H-pyran-4-yl)propan-2-yl)cyclohexanecarboxamide]	0.071
CC(C)(C)NS(=O)(=O)c1ccc(NC(=O)[C@H](Cc2cccs2)NC(=O)C2CCCCC2)cc1 [Compound 19a, (S)-N-(1-((4-(N-(tert-butyl)sulfamoyl)phenyl)amino)-1-oxo-3-(thiophen-2-yl)propan-2-yl)cyclohexanecarboxamide]	0.028
COc1ccc(C[C@H](NC(=O)c2ccccc2)C(=O)Nc2cccc3c(S(=O)(=O)NC(C)(C)C)cccc23)cc1 [Compound 7f, (S)-N-(1-((5-(N-(tert-butyl)sulfamoyl)naphthalen-1-yl)amino)-3-(4-methoxyphenyl)-1-oxopropan-2-yl)benzamide]	0.089
CC(C)(C)NS(=O)(=O)c1cccc2c(NC(=O)[C@H](CC3CCCCC3)NC(=O)c3ccccc3)cccc12 [Compound 7c, (S)-N-(1-((5-(N-(tert-butyl)sulfamoyl)naphthalen-1-yl)amino)-3-cyclohexyl-1-oxopropan-2-yl)benzamide]	0.666
Cc1ccc(C(=O)N[C@@H](Cc2ccccc2)C(=O)Nc2cccc3c(S(=O)(=O)NC(C)(C)C)cccc23)cc1 [Compound 4i, (S)-N-(1-((5-(N-(tert-butyl)sulfamoyl)naphthalen-1-yl)amino)-1-oxo-3-phenylpropan-2-yl)-4-methylbenzamide]	2.5
CC(C)(C)NS(=O)(=O)c1ccc(NC(=O)[C@H](CC2CCCCC2)NC(=O)c2ccc(C(F)(F)F)cc2)cc1 [Compound 14d, (S)-N-(1-((4-(N-(tert-butyl)sulfamoyl)phenyl)amino)-3-cyclohexyl-1-oxopropan-2-yl)-4-(trifluoromethyl)benzamide]	> 10
CC(C)(C)NS(=O)(=O)c1cccc2c(NC(=O)[C@H](Cc3ccccc3)NC(=O)c3ccco3)cccc12 [Compound 4z, (S)-N-(1-((5-(N-(tert-butyl)sulfamoyl)naphthalen-1-yl)amino)-1-oxo-3-phenylpropan-2-yl)furan-2-carboxamide]	> 10
CC(C)(C)NS(=O)(=O)c1ccc(NC(=O)[C@H](Cc2cccc(C#N)c2)NC(=O)C2CCCCC2)cc1 [Compound 19ad, (S)-N-(1-((4-(N-(tert-butyl)sulfamoyl)phenyl)amino)-3-(3-cyanophenyl)-1-oxopropan-2-yl)cyclohexanecarboxamide]	0.041
COc1ccc(C(=O)N[C@@H](Cc2cccs2)C(=O)Nc2ccc(S(=O)(=O)NC(C)(C)C)cc2)nc1 [Compound 19t, (S)-N-(1-((4-(N-(tert-butyl)sulfamoyl)phenyl)amino)-1-oxo-3-(thiophen-2-yl)propan-2-yl)-5-methoxypicolinamide]	1.04
CC(C)(C)NS(=O)(=O)c1cccc2c(NC(=O)[C@H](Cc3ccccc3)NC(=O)C3CCCCCC3)cccc12 [Compound 4p, (S)-N-(1-((5-(N-(tert-butyl)sulfamoyl)naphthalen-1-yl)amino)-1-oxo-3-phenylpropan-2-yl)cycloheptanecarboxamide]	4.3
COc1ccc(C[C@H](NC(=O)c2cscn2)C(=O)Nc2ccc(S(=O)(=O)NC(C)(C)C)cc2)cc1 [Compound 19x, (S)-N-(1-((4-(N-(tert-butyl)sulfamoyl)phenyl)amino)-3-(4-methoxyphenyl)-1-oxopropan-2-yl)thiazole-4-carboxamide]	> 10
COc1ccc(C[C@H](NC(=O)c2cccnc2)C(=O)Nc2ccc(S(=O)(=O)NC(C)(C)C)cc2)cc1 [Compound 19aa, (S)-N-(1-((4-(N-(tert-butyl)sulfamoyl)phenyl)amino)-3-(4-methoxyphenyl)-1-oxopropan-2-yl)nicotinamide]	0.208
CC(C)(C)NS(=O)(=O)c1ccc(NC(=O)[C@H](Cc2ccccc2)NC(=O)c2ccccn2)cc1 [Compound 10h, (S)-N-(1-((4-(N-(tert-butyl)sulfamoyl)phenyl)amino)-1-oxo-3-phenylpropan-2-yl)picolinamide]	0.25
COc1ccc(C(=O)N[C@@H](Cc2ccccc2)C(=O)Nc2cccc3c(S(=O)(=O)NC(C)(C)C)cccc23)cc1 [Compound 4v, (S)-N-(1-((5-(N-(tert-butyl)sulfamoyl)naphthalen-1-yl)amino)-1-oxo-3-phenylpropan-2-yl)-4-methoxybenzamide]	9
CC(C)(C)NS(=O)(=O)c1ccc(NC(=O)[C@H](CC2CCCCC2)NC(=O)c2cccc(C#N)c2)cc1 [Compound 14i, (S)-N-(1-((4-(N-(tert-butyl)sulfamoyl)phenyl)amino)-3-cyclohexyl-1-oxopropan-2-yl)-3-cyanobenzamide]	> 10
CC(C)(C)NS(=O)(=O)c1cccc2c(NC(=O)[C@H](Cc3ccccc3)NC(=O)CCc3ccccc3)cccc12 [Compound 4f, (S)-N-(5-(N-(tert-butyl)sulfamoyl)naphthalen-1-yl)-3-phenyl-2-(3-phenylpropanamido)propanamide]	> 10
CC(C)(C)NS(=O)(=O)c1ccc(NC(=O)[C@H](CC2CCCCC2)NC(=O)C2CCCCC2)cc1 [Compound 14b, (S)-N-(1-((4-(N-(tert-butyl)sulfamoyl)phenyl)amino)-3-cyclohexyl-1-oxopropan-2-yl)cyclohexanecarboxamide]	0.083
C[C@@H](O)[C@H](NC(=O)C1CCCCC1)C(=O)Nc1ccc(S(=O)(=O)NC(C)(C)C)cc1 [Compound 19i, N-((2S,3R)-1-((4-(N-(tert-butyl)sulfamoyl)phenyl)amino)-3-hydroxy-1-oxobutan-2-yl)cyclohexanecarboxamide]	> 10
CC(C)(C)NS(=O)(=O)c1ccc(NC(=O)[C@H](CC2CCCCC2)NC(=O)c2ccc(F)cc2)cc1 [Compound 14c, (S)-N-(1-((4-(N-(tert-butyl)sulfamoyl)phenyl)amino)-3-cyclohexyl-1-oxopropan-2-yl)-4-fluorobenzamide]	0.023
CC(C)(C)NS(=O)(=O)c1ccc(NC(=O)[C@H](CC2CCCCC2)NC(=O)c2ccccc2)cc1 [Compound 14a, (S)-N-(1-((4-(N-(tert-butyl)sulfamoyl)phenyl)amino)-3-cyclohexyl-1-oxopropan-2-yl)benzamide]	0.225
CC(C)(C)NS(=O)(=O)c1cccc2c(NC(=O)[C@H](Cc3ccc(C#N)cc3)NC(=O)c3ccccc3)cccc12 [Compound 7j, (S)-N-(1-((5-(N-(tert-butyl)sulfamoyl)naphthalen-1-yl)amino)-3-(4-cyanophenyl)-1-oxopropan-2-yl)benzamide]	0.273
